In patent publication US20250250245A1, “TRIMETAZIDINE SALTS” (LES LABORATOIRES SERVIER, priority 2021, published 2025) one finds Trimetazidine nitrosamine content and Solubility data, which are given here for 14 compounds.

The nature of series [1]: Trimetazidine nitrosamine formation in aqueous sodium nitrite solution (LC/MS dosage). Format: physicochemical. On the procedure:
In order to model the formation of trimetazidine nitrosamine during the formulation process, an aqueous solution of sodium nitrite was added to the trimetazidine salt. The sodium nitrite mimics the presence of nitrites in water and/or excipients during a drug product manufacturing process.
The trimetazidine salt, in an amount corresponding to 600 mg trimetazidine, was placed in 2 mL volumetric flask. […]
The solution was stirred at 40° C. for 22 hours. The trimetazidine nitrosamine dosage was performed by LC/MS.

Series [2] in a line: Solubility of the trimetazidine salts in the aqueous test solution. The format is physicochemical. The note with it: 300 mg/mL in trimetazidine equivalent not used.
Setting [3] is: 300 mg/mL in trimetazidine equivalent, stirred at 40° C. for 22 hours.

Where a name gives a salt, the structure may show the parent alone.

Turning to `COc1ccc(CN2CCNCC2)c(OC)c1OC.Cl.Cl` [Comparative Example E], the Trimetazidine nitrosamine content in series [1] (setting [3]) turned out to be 22.0 ppm.

Consider “trimetazidine hemioxalate [Comparative Example B]”, for which the Trimetazidine nitrosamine content in series [1] (setting [3]) was 1.1 ppm.

With `COc1ccc(CN2CCNCC2)c(OC)c1OC.O=C(O)C(=O)O` [Comparative Example C], in series [1] (30 mg/mL in trimetazidine equivalent (low solubility), 40° C. for 22 hours), the Trimetazidine nitrosamine content was 104.0 ppm. For the same compound, the Solubility result in series [2] is reported as “low solubilities”.

With Trimetazidine Hemimalate [Example 3], the Trimetazidine nitrosamine content in series [1] (setting [3]) came to 0.7 ppm.

As for `COc1ccc(CN2CCNCC2)c(OC)c1OC.O=C(O)C(=O)O.O=C(O)C(=O)O` [Comparative Example D], the Trimetazidine nitrosamine content in series [1] (6 mg/mL in trimetazidine equivalent (low solubility), 40° C. for 22 hours) was 83.1 ppm. Further, in series [2], the Solubility entry was “low solubilities”.

With `COc1ccc(CN2CCNCC2)c(OC)c1OC.O=C(O)C=CC(=O)O` [Comparative Example G], in series [1] (setting [3]), the Trimetazidine nitrosamine content was 31.9 ppm.

As to Trimetazidine Hemitartrate [Example 6], the Trimetazidine nitrosamine content in series [1] (setting [3]) is listed as 0.6 ppm.

With `COc1ccc(CN2CCNCC2)c(OC)c1OC.COc1ccc(CN2CCNCC2)c(OC)c1OC.O=C(O)CCCCC(=O)O` [Example 1, Trimetazidine Hemiadipate], the Trimetazidine nitrosamine content in series [1] (setting [3]) was found to be 0.7 ppm.

For `COc1ccc(CN2CCNCC2)c(OC)c1OC.O=C(O)C=CC(=O)O` [Comparative Example F], in series [1] (setting [3]), the Trimetazidine nitrosamine content is listed as 121.2 ppm.

For the compound Trimetazidine Hemisulfate [Example 4], in series [1] (setting [3]), the Trimetazidine nitrosamine content was 0.6 ppm.

For Trimetazidine Hemiphosphate [Example 7], the Trimetazidine nitrosamine content in series [1] (setting [3]) is reported as 0.6 ppm.

As to `COc1ccc(CN2CCNCC2)c(OC)c1OC` [Comparative Example A, Trimetazidine dihydrochloride], the Trimetazidine nitrosamine content in series [1] (setting [3]) was found to be 126.0 ppm.

Consider Trimetazidine Hemifumarate [Example 5], for which, in series [1] (setting [3]), the Trimetazidine nitrosamine content is 0.1 ppm.

On to Trimetazidine Hemisuccinate [Example 2], for which, in series [1] (setting [3]), the Trimetazidine nitrosamine content was 0.5 ppm.
